Data as given in patent publication EP0627489B1, “Methods and compositions for the treatment of malignancies in which a protein kinase is associated” (WASHINGTON RESEARCH FOUNDATION, priority 1990, dated 1991).
Several values for one entry are separate records, joined by “and”; a condition that tells them apart may be missing. Identical values can stand only once. Like-named read-outs stand apart in the source and are kept apart here.

Key:
Format in all cases: biochemical
TC.PTPase = molecular target: T1, TC.PTPase (Homo sapiens, UniProt P17706); test: Effectors of PTPase activity, full-length enzyme
T1 construct: open reading frames of the full-length 48-kDa T cell PTPase (TC.PTPase); made in house; host or cells: Sf9 (Spodoptera frugiperda) insect cells, recombinant baculovirus (pVL 941)
T1 sequence (P17706 1-415): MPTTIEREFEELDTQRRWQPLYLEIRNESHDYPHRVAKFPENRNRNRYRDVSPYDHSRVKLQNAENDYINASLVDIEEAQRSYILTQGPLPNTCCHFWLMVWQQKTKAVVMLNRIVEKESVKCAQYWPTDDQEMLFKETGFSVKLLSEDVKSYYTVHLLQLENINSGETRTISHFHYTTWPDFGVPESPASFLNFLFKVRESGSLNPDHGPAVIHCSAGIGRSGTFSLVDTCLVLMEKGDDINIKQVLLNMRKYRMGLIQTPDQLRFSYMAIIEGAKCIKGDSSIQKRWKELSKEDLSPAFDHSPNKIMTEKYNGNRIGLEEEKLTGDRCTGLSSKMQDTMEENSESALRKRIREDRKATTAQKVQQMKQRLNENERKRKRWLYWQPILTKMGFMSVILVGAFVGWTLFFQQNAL
Procedure: (§1) Cell extracts or purified enzymes were assayed for tyrosine phosphatase using a method described by Tonks et al., in "Purification of the Major Protein-tyrosine-phosphatases of Human Placenta," J. Biol. Chem. (263):6722-6730, 1988, based on measurement of the release of ^32P from labeled substrate. Since phosphorylation of reduced, carboxyamidomethylated, maleylated (RCM)-lysozyme is not stoichiometric, concentrations are expressed in terms of ^32P phosphotyrosine. Briefly, a mixture of 0.02 ml of PTPase (diluted to less than 1 unit/ml in Buffer A) and 0.02 ml of Buffer A was warmed at 30°C for 5 minutes. Buffer A is composed of 25 mM imidazole HCl […], 1 mg/ml BSA, 0.1% (v/v) β-mercaptoethanol. […] The reaction was terminated after approximately 10 minutes by addition of 0.18 ml of 20% (w/v) trichloroacetic acid and 0.02 ml of 25 mg/ml BSA, added as a carrier protein. The suspension was vortexed, allowed to stand on ice for 10 minutes, and centrifuged at 12,500 x g for 3 minutes. A 0.2-ml aliquot of the supernatant was added to 1 ml of Aquasol scintillant and counted in a Beckman LS7000 scintillation counter. […] Blank incubations were performed in which the PTPase was replaced by Buffer A, and total ^32P was determined by counting 0.02 ml of the substrate. […] One unit of PTPase activity is defined as that amount which releases 1 nmol of phosphate/min. […]

TCΔC11.PTPase [1] = molecular target: T2, TCΔC11.PTPase (Homo sapiens, UniProt P17706); test: Effectors of PTPase activity, truncated enzyme
T2 construct: a truncated PTPase in which an 11-kDa segment was deleted from the carboxyl end (TCΔC11.PTPase-transfected cells); made in house; host or cells: Sf9 (Spodoptera frugiperda) insect cells, recombinant baculovirus (pVL 941)
T2 sequence (P17706 1-317 limits assumed): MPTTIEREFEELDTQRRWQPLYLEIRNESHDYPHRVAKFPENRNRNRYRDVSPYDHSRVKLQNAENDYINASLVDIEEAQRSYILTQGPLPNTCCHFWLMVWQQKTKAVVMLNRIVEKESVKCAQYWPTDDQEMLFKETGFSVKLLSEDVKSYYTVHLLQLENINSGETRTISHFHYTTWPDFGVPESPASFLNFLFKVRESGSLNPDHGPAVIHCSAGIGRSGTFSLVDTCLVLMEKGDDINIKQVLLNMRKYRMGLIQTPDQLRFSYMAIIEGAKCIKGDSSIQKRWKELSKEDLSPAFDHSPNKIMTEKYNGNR

TCΔC11.PTPase [2] = molecular target: T2, TCΔC11.PTPase; test: Effectors of PTPase activity, truncated enzyme; settings: substrate RCML 5 µM
Procedure: as §1

[3] = effector 2 mM, substrate MBP 5 µM
[4] = effector 10 µM, substrate MBP 5 µM
[5] = effector 10 µM, substrate RCML 5 µM
[6] = effector 0.01 µM, substrate MBP 5 µM
[7] = effector 1 µM, substrate MBP 5 µM
[8] = effector 100 µM, substrate MBP 5 µM

## O=C(O)CN(CCN(CC(=O)O)CC(=O)O)CC(=O)O [EDTA]
TC.PTPase
  Activity, percentage of phosphate released relative to control in which the effector was omitted: 124 percentage and 137 percentage
TCΔC11.PTPase [1]
  Activity, percentage of phosphate released relative to control in which the effector was omitted: 170 percentage and 150 percentage

## NCCCCNCCCN [spermidine]
TC.PTPase; [3]
  Activity, percentage of phosphate released relative to control in which the effector was omitted: 43 percentage
TC.PTPase; effector 2 mM, substrate RCML 5 µM
  Activity, percentage of phosphate released relative to control in which the effector was omitted: 249 percentage
TCΔC11.PTPase [2]; effector 2 mM
  Activity, percentage of phosphate released relative to control in which the effector was omitted: 132 percentage
TCΔC11.PTPase [1]; [3]
  Activity, percentage of phosphate released relative to control in which the effector was omitted: 108 percentage

## NCCCNCCCCNCCCN [spermine]
TC.PTPase
  Activity, percentage of phosphate released relative to control in which the effector was omitted: 62 percentage
  activation of the full-length enzyme: up to sevenfold
TC.PTPase; 10 min, read-out: Activity, percentage of phosphate released relative to control in which the effector was omitted
  remaining activity at 2000 µM: 727%
TCΔC11.PTPase [1]
  Activity, percentage of phosphate released relative to control in which the effector was omitted: 110 percentage and 97 percentage

## molybdate
TC.PTPase; [4]
  Activity, percentage of phosphate released relative to control in which the effector was omitted: 1 percentage
TC.PTPase; [5]
  Activity, percentage of phosphate released relative to control in which the effector was omitted: 0 percentage
TCΔC11.PTPase [2]; effector 10 µM
  Activity, percentage of phosphate released relative to control in which the effector was omitted: 2 percentage
TCΔC11.PTPase [1]; [4]
  Activity, percentage of phosphate released relative to control in which the effector was omitted: 2 percentage

## poly Glu:Tyr 4:1
TC.PTPase; [6]
  Activity, percentage of phosphate released relative to control in which the effector was omitted: 119 percentage
TC.PTPase; effector 0.01 µM, substrate RCML 5 µM
  Activity, percentage of phosphate released relative to control in which the effector was omitted: 66 percentage
TC.PTPase; [7]
  Activity, percentage of phosphate released relative to control in which the effector was omitted: 133 percentage
TC.PTPase; effector 1 µM, substrate RCML 5 µM
  Activity, percentage of phosphate released relative to control in which the effector was omitted: 18 percentage
TC.PTPase; [4]
  Activity, percentage of phosphate released relative to control in which the effector was omitted: 58 percentage
TC.PTPase; [5]
  Activity, percentage of phosphate released relative to control in which the effector was omitted: 6 percentage
TCΔC11.PTPase [2]; effector 0.01 µM
  Activity, percentage of phosphate released relative to control in which the effector was omitted: 70 percentage
TCΔC11.PTPase [2]; effector 1 µM
  Activity, percentage of phosphate released relative to control in which the effector was omitted: 17 percentage
TCΔC11.PTPase [2]; effector 10 µM
  Activity, percentage of phosphate released relative to control in which the effector was omitted: 11 percentage
TCΔC11.PTPase [1]; [6]
  Activity, percentage of phosphate released relative to control in which the effector was omitted: 102 percentage
TCΔC11.PTPase [1]; [7]
  Activity, percentage of phosphate released relative to control in which the effector was omitted: 104 percentage
TCΔC11.PTPase [1]; [4]
  Activity, percentage of phosphate released relative to control in which the effector was omitted: 127 percentage

## vanadate
TC.PTPase; [8]
  Activity, percentage of phosphate released relative to control in which the effector was omitted: 0 percentage
TC.PTPase; effector 100 µM, substrate RCML 5 µM
  Activity, percentage of phosphate released relative to control in which the effector was omitted: 0 percentage
TCΔC11.PTPase [2]; effector 100 µM
  Activity, percentage of phosphate released relative to control in which the effector was omitted: 2 percentage
TCΔC11.PTPase [1]; [8]
  Activity, percentage of phosphate released relative to control in which the effector was omitted: 1 percentage
